System: subjects with moderately to severely active RA who have an inadequate response to methotrexate (MTX)
Assay: Study 1 (add-on to MTX) - ACR responses (ACR20/50/70)
Format: in vivo, human
Excerpt: The terms “ACR20”, “ACR50” and “ACR70” as used herein are scores which indicate how much a patient's rheumatoid arthritis has improved according to criteria set out by the American College of Rheumatology (ACR). The ACR score represents a percentage. An ACR20 score means that a person's RA has improved by 20%, an ACR50 score means it has improved by 50%, and an ACR70 score means it has improved by 70%. Specifically, to qualify for an ACR20 score, a person with RA must have at least 20% fewer tender joints and at least 20% fewer swollen joints. In addition the patient must show a 20% improvement in at least three of the following five areas: the person's overall (global) assessment of his or her own RA, the physician's global assessment of the person's RA, the person's assessment of his or her own pain, the person's assessment of his or her own physical functioning, and the results of an erythrocyte sedimentation rate or C-reactive protein (CRP) blood test (both of which test for inflammation). ACR50 and ACR70 scores use the same criteria but require 50% and 70% improvement, respectively, (Felson et al., 1993). In the data presented herein the CRP blood test is used.
Double-blind, placebo-controlled add on study in subjects with moderately to severely active RA who have an inadequate response to methotrexate (MTX) (oral or parenteral).
595 subjects randomized to one of 6 dose regimens of Compound 1 (dosed as [Compound 1:HCl:3H2O]) (3 dose levels administered either once or twice daily) or placebo on top of each subject's stable dose of MTX.
Compound 1 (dosed as [Compound 1:HCl:3H2O]) is dosed for twelve weeks once daily (q.d.) (50 mg, 100 mg or 200 mg) or twice daily (b.i.d.) (25 mg, 50 mg or 100 mg); or placebo.
At Week 12, the subjects on placebo who have not achieved 20% improvement in swollen joint count (SJC66) and tender joint count (TJC68) are re-randomized automatically to receive Compound 1 (dosed as a [Compound 1:HCl:3H2O]) either at 100 mg q.d. or 50 mg b.i.d. doses in a blinded fashion; subjects on 50 mg q.d. who have not achieved 20% improvement in SJC66 and TJC68 will be assigned to 100 mg q.d. and subjects on 25 mg b.i.d. that have not achieved a 20% improvement in SJC66 and TJC68 will be assigned to 50 mg b.i.d. Subjects who switch treatment at week 12 are handled as if they discontinued at week 12 for the purpose of statistical analysis, whereas subjects in the other groups will maintain their randomized treatment until Week 24.
The American College of Rheumatology (ACR) composite score, which evaluates clinical improvement relative to an initial assessment, is a commonly accepted efficacy end point for clinical trials in patients with rheumatoid arthritis. The ACR score correspond to a percentage improvement in pre-set parameters, and therefore measures the evolution of the disease in a patient. For example, ACR20 denotes at least 20% improvement in tender and swollen joint counts and in three of the following end points: global assessment by the patient, global assessment by the doctor, C reactive protein (CRP), patient's pain Visual Analogue Scale and Health Assessment Questionnaire Score. The number of swollen joints, ESR and CRP correlate with radiographic progression of joint damage, whereas tender joint counts, as well as global assessments by doctors and patients, and patients' reports of pain, are sensitive to change in clinical outcomes. Physical function, as assessed by the Health Assessment Questionnaire Score, is a potent predictor of the risk of disability in rheumatoid arthritis (Felson and American College of Rheumatology Committee to Reevaluate Improvement Criteria, 2007; Felson et al., 1993).
In particular, the list of parameters used to assess ACR score can be found in the Table XCVI below and the results of the ACR responses at week 12 via either NRI or LOCF are shown in the tables below. The Hommel-corrected p-value for the pairwise comparisons of each group with placebo is shown. […]

[1] = 2 × 25 mg b.i.d., week 2, 12 weeks results
[2] = 2 × 25 mg b.i.d., week 2, 24 weeks results
[3] = 2 × 25 mg b.i.d., week 4, 12 weeks results
[4] = 2 × 25 mg b.i.d., week 4, 24 weeks results
[5] = 2 × 25 mg b.i.d., week 8, 12 weeks results
[6] = 2 × 25 mg b.i.d., week 8, 24 weeks results
[7] = 2 × 25 mg b.i.d., week 12, 12 weeks results
[8] = 2 × 25 mg b.i.d., week 12, 24 weeks results
[9] = 2 × 25 mg b.i.d., week 16, 24 weeks results
[10] = 2 × 25 mg b.i.d., week 20, 24 weeks results
[11] = 2 × 25 mg b.i.d., week 24, 24 weeks results
[12] = 2 × 25 mg b.i.d., at week 1, 12 weeks results
[13] = 2 × 25 mg b.i.d., at week 1, 24 weeks results
[14] = 2 × 50 mg b.i.d., week 2, 12 weeks results
[15] = 2 × 50 mg b.i.d., week 2, 24 weeks results
[16] = 2 × 50 mg b.i.d., week 4, 12 weeks results
[17] = 2 × 50 mg b.i.d., week 4, 24 weeks results
[18] = 2 × 50 mg b.i.d., week 8, 12 weeks results
[19] = 2 × 50 mg b.i.d., week 8, 24 weeks results

Compound: O=C(Nc1nc2cccc(-c3ccc(CN4CCS(=O)(=O)CC4)cc3)n2n1)C1CC1 [Compound 1, cyclopropanecarboxylic acid {5-[4-(1,1-dioxo-thiomorpholin-4-ylmethyl)-phenyl]-[1,2,4]triazolo[1,5-a]pyridin-2-yl}-amide]
- ACR70 (NRI) (200 mg q.d., week 8, 12 weeks results): 18.6%
- ACR20 (LOCF) [1]: 27.9%
- ACR20 (NRI) [1]: 29.1%
- ACR50 (LOCF) [1]: 7.0%
- ACR50 (NRI) [1]: 7.0%
- ACR70 (LOCF) [1]: 2.3%
- ACR70 (NRI) [1]: 2.3%
- ACR20 (LOCF) [2]: 29.1%
- ACR20 (NRI) [2]: 29.1%
- ACR50 (LOCF) [2]: 7.0%
- ACR50 (NRI) [2]: 7.0%
- ACR70 (LOCF) [2]: 2.3%
- ACR70 (NRI) [2]: 2.3%
- ACR20 (LOCF) [3]: 44.2%
- ACR20 (NRI) [3]: 45.3%
- ACR50 (LOCF) [3]: 16.3%
- ACR50 (NRI) [3]: 15.1%
- ACR70 (LOCF) [3]: 5.8%
- ACR70 (NRI) [3]: 5.8%
- ACR20 (LOCF) [4]: 46.5%
- ACR20 (NRI) [4]: 45.3%
- ACR50 (LOCF) [4]: 16.3%
- ACR50 (NRI) [4]: 15.1%
- ACR70 (LOCF) [4]: 5.8%
- ACR70 (NRI) [4]: 5.8%
- ACR20 (LOCF) [5]: 58.1%
- ACR20 (NRI) [5]: 58.1%
- ACR50 (LOCF) [5]: 25.6%
- ACR50 (NRI) [5]: 25.6%
- ACR70 (LOCF) [5]: 8.1%
- ACR70 (NRI) [5]: 9.3%
- ACR20 (LOCF) [6]: 59.3%
- ACR20 (NRI) [6]: 58.1%
- ACR50 (LOCF) [6]: 25.6%
- ACR50 (NRI) [6]: 25.6%
- ACR70 (LOCF) [6]: 9.3%
- ACR70 (NRI) [6]: 9.3%
- ACR20 (LOCF) [7]: 58.1%
- ACR20 (NRI) [7]: 57.0%
- ACR50 (LOCF) [7]: 29.1%
- ACR50 (NRI) [7]: 27.9%
- ACR70 (LOCF) [7]: 14.0%
- ACR70 (NRI) [7]: 14.0%
- ACR20 (LOCF) [8]: 59.3%
- ACR20 (NRI) [8]: 57.0%
- ACR50 (LOCF) [8]: 29.1%
- ACR50 (NRI) [8]: 27.9%
- ACR70 (LOCF) [8]: 14.0%
- ACR70 (NRI) [8]: 14.0%
- ACR20 (LOCF) [9]: 55.8%
- ACR20 (NRI) [9]: 52.3%
- ACR50 (LOCF) [9]: 31.4%
- ACR70 (LOCF) [9]: 10.5%
- ACR20 (LOCF) [10]: 58.1%
- ACR20 (NRI) [10]: 52.3%
- ACR50 (LOCF) [10]: 41.9%
- ACR70 (LOCF) [10]: 11.6%
- ACR20 (LOCF) [11]: 62.8%
- ACR20 (NRI) [11]: 55.8%
- ACR50 (LOCF) [11]: 38.4%
- ACR70 (LOCF) [11]: 22.1%
- ACR20 (LOCF) [12]: 17.4%
- ACR20 (NRI) [12]: 17.4%
- ACR50 (LOCF) [12]: 2.3%
- ACR50 (NRI) [12]: 3.5%
- ACR70 (LOCF) [12]: 1.2%
- ACR70 (NRI) [12]: 1.2%
- ACR20 (LOCF) [13]: 17.4%
- ACR20 (NRI) [13]: 17.4%
- ACR50 (LOCF) [13]: 3.5%
- ACR50 (NRI) [13]: 3.5%
- ACR70 (LOCF) [13]: 2.4%
- ACR70 (NRI) [13]: 1.2%
- ACR20 (LOCF) [14]: 40.0%
- ACR20 (NRI) [14]: 41.2%
- ACR50 (LOCF) [14]: 11.8%
- ACR50 (NRI) [14]: 11.8%
- ACR70 (LOCF) [14]: 5.9%
- ACR70 (NRI) [14]: 5.9%
- ACR20 (LOCF) [15]: 41.2%
- ACR20 (NRI) [15]: 41.2%
- ACR50 (LOCF) [15]: 11.8%
- ACR50 (NRI) [15]: 11.8%
- ACR70 (LOCF) [15]: 5.9%
- ACR70 (NRI) [15]: 5.9%
- ACR20 (LOCF) [16]: 45.9%
- ACR20 (NRI) [16]: 44.7%
- ACR50 (LOCF) [16]: 20.0%
- ACR50 (NRI) [16]: 17.6%
- ACR70 (LOCF) [16]: 9.4%
- ACR70 (NRI) [16]: 9.4%
- ACR20 (LOCF) [17]: 47.1%
- ACR20 (NRI) [17]: 45.3%
- ACR50 (LOCF) [17]: 20.0%
- ACR50 (NRI) [17]: 17.6%
- ACR70 (LOCF) [17]: 9.4%
- ACR70 (NRI) [17]: 9.4%
- ACR20 (LOCF) [18]: 55.3%
- ACR20 (NRI) [18]: 54.1%
- ACR50 (LOCF) [18]: 32.9%
- ACR50 (NRI) [18]: 32.9%
- ACR70 (LOCF) [18]: 14.1%
- ACR70 (NRI) [18]: 14.1%
- ACR20 (LOCF) [19]: 55.3%
- ACR20 (NRI) [19]: 54.1%
- ACR50 (LOCF) [19]: 32.9%
- ACR50 (NRI) [19]: 32.9%
- ACR70 (LOCF) [19]: 14.1%

— patent publication US20180200257A1, “METHODS FOR THE TREATMENT OF INFLAMMATORY DISORDERS” (Galapagos NV, priority 2015, published 2018)
